We go through 23 molecules from patent US10336739B2, “4-hydroxy-3-(heteroaryl)pyridine-2-one APJ agonists” (BRISTOL-MYERS SQUIBB COMPANY, priority 2015, dated 2019).

pEC50: −log10 of the molar value.

Chain of human APJ receptor (P35414 whole entry): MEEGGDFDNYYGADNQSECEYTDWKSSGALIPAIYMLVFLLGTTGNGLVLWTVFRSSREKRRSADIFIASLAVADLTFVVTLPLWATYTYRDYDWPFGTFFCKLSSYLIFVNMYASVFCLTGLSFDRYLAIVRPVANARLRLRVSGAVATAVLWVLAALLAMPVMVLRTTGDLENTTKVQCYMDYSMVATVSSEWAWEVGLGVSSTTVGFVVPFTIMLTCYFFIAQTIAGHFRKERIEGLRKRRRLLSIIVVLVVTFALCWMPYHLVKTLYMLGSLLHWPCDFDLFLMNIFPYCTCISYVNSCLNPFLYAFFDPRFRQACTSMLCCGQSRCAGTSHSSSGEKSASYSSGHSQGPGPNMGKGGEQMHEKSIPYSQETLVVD

This experiment concerns the target human APJ receptor (Homo sapiens (Human), UniProt P35414). Put plainly: Intracellular cAMP accumulation assay (APJ hcAMP, HTRF). It is filed as cell-based. The following applies: HEK293 cells stably expressing human APJ receptor; inhibition of forskolin-mediated cAMP production; read-out: hAPJ cAMP EC50 Potency range. The procedure, abridged: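 cAMP inhibition was quantified by HTRF against a cAMP standard curve, with EC50 fitted to a variable-slope sigmoidal curve. Compounds acted on 5,000 APJ-stable HEK293 cells for 30 minutes at room temperature alongside 2 μM forskolin and […] IBMX. Detection reagents were incubated 60 min.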
In general terms: Cyclic AMP is a second messenger, typically raised through Gs and lowered through Gi signalling.
The pEC50 is −log10 of the EC50, conventionally taken in molar units. With `CCCCc1nc(O)c(-c2nnc(Cc3noc4ccccc34)o2)c(O)c1-c1c(Cl)cccc1Cl` [Example 86, 3-[5-(1,2-benzoxazol-3-ylmethyl)-1,3,4-oxadiazol-2-yl]-6-butyl-5-(2,6-dichlorophenyl) pyridine-2,4-diol], the pEC50 was 8.00 to 11.00.

As to `CCCCc1nc(O)c(-c2nnc(Cc3ccc(Cl)cc3)o2)c(O)c1-c1c(Cl)cccc1Cl` [Example 87, 6-butyl-3-{5-[(4-chlorophenyl)methyl]-1,3,4-oxadiazol-2-yl}-5-(2,6-dichlorophenyl) pyridine-2,4-diol], the pEC50 was 7.00 to 8.00.

As to `CCCCc1nc(O)c(-c2nnc(C(c3ccc(F)cc3)N(C)C)o2)c(O)c1-c1c(OC)cccc1OC` (centres unmarked) [Example 88, 6-butyl-5-(2,6-dimethoxyphenyl)-3-{5-[(dimethylamino) (4-fluorophenyl)methyl]-1,3,4-oxadiazol-2-yl}pyridine-2,4-diol], the pEC50 is 8.00 to 11.00.

On to `CCOCc1nc(O)c(-c2nnc(Cc3noc4ccccc34)o2)c(O)c1-c1c(OC)cccc1OC` [Example 89, 3-[5-(1,2-benzoxazol-3-ylmethyl)-1,3,4-oxadiazol-2-yl]-5-(2,6-dimethoxyphenyl)-6-(ethoxymethyl) pyridine-2,4-diol], for which the pEC50 is 8.00 to 11.00.

Consider `CCOCc1nc(O)c(-c2nnc(Cc3ccc(Cl)cc3)o2)c(O)c1-c1c(OC)cccc1OC` [Example 90, 3-{5-[(4-chlorophenyl)methyl]-1,3,4-oxadiazol-2-yl}-5-(2,6-dimethoxyphenyl)-6-(ethoxymethyl) pyridine-2,4-diol], for which the pEC50 was 8.00 to 11.00.

For the molecule `CCCCc1nc(O)c(-c2nnc(Cc3nc(-c4ccccc4)oc3C)o2)c(O)c1-c1c(OC)cccc1OC` [Example 91, 6-butyl-5-(2,6-dimethoxyphenyl)-3-{5-[(5-methyl-2-phenyl-1,3-oxazol-4-yl)methyl]-1,3,4-oxadiazol-2-yl}pyridine-2,4-diol], the pEC50 was 8.00 to 11.00.

In the case of `COc1cccc(OC)c1-c1c(C2CC2)nc(O)c(-c2nnc(Cc3noc4ccccc34)o2)c1O` [Example 92, 3-[5-(1,2-benzoxazol-3-ylmethyl)-1,3,4-oxadiazol-2-yl]-6-cyclopropyl-5-(2,6-dimethoxyphenyl) pyridine-2,4-diol], the pEC50 is 7.00 to 8.00.

Regarding `COc1cccc(OC)c1-c1c(C2CC2)[nH]c(=O)c(-c2nnc(Cc3ccc(Cl)cc3)o2)c1O` [Example 93, 3-{5-[(4-chlorophenyl)methyl]-1,3,4-oxadiazol-2-yl}-6-cyclopropyl-5-(2,6-dimethoxyphenyl) pyridine-2,4-diol], the pEC50 is 7.00 to 8.00.

Regarding `COc1cccc(OC)c1-c1c(C2CC2)nc(O)c(-c2nnc(Cc3csc(C)n3)o2)c1O` [Example 94, 6-cyclopropyl-5-(2,6-dimethoxyphenyl) 3-{5-[(2-methyl-1,3-thiazol-4-yl)methyl]-1,3,4-oxadiazol-2-yl}pyridine-2,4-diol], the pEC50 is 7.00 to 8.00.

As for `COc1cccc(OC)c1-c1c(C2CC2)nc(O)c(-c2nnc(Cc3nc(-c4ccccn4)no3)o2)c1O` [Example 95, 6-cyclopropyl-5-(2,6-dimethoxyphenyl)-3-(5-{[3-(pyridin-2-yl)-1,2,4-oxadiazol-5-yl]methyl}-1,3,4-oxadiazol-2-yl)pyridine-2,4-diol], the negative-log EC50 (pEC50) is 8.00 to 11.00.

As for `CCCCc1nc(O)c(-c2nnc(CC(=O)OCC)o2)c(O)c1-c1c(OC)cccc1OC` [Example 96, ethyl 2-{5-[6-butyl-5-(2,6-dimethoxyphenyl)-2,4-dihydroxypyridin-3-yl]-1,3,4-oxadiazol-2-yl}acetate], the pEC50 is 7.00 to 8.00.

In the case of `CCCCc1nc(O)c(-c2nnc(CN3C(=O)CN(C)C3=O)o2)c(O)c1-c1c(OC)cccc1OC` [Example 98, 3-({5-[6-butyl-5-(2,6-dimethoxyphenyl)-2,4-dihydroxypyridin-3-yl]-1,3,4-oxadiazol-2-yl}methyl)-1-methyl-imidazolidine-2,4-dione], the pEC50 is 8.00 to 11.00.

Regarding `CCCCc1nc(O)c(-c2nnc(Cc3cccc(F)c3)o2)c(O)c1-c1c(OC)cccc1OC` [Example 99, 6-butyl-5-(2,6-dimethoxyphenyl)-3-{5-[(3-fluorophenyl)methyl]-1,3,4-oxadiazol-2-yl}pyridine-2,4-diol], the pEC50 was 8.00 to 11.00.

With `CCCCc1nc(O)c(-c2nnc(CN3CCCCC3)o2)c(O)c1-c1c(OC)cccc1OC` [Example 100, 6-butyl-5-(2,6-dimethoxyphenyl)-3-[5-(piperidin-1-ylmethyl)-1,3,4-oxadiazol-2-yl]pyridine-2,4-diol], the pEC50 was 7.00 to 8.00.

As for `CCCCc1nc(O)c(-c2nnc(Cc3nc(-c4cccnc4)no3)o2)c(O)c1-c1c(OC)cccc1OC` [Example 101, 6-butyl-5-(2,6-dimethoxyphenyl)-3-(5-{[3-(pyridin-3-yl)-1,2,4-oxadiazol-5-yl]methyl}-1,3,4-oxadiazol-2-yl)pyridine-2,4-diol], the pEC50 is 8.00 to 11.00.

With `CCCCc1nc(O)c(-c2nnc(Cc3cnn(C)c3)o2)c(O)c1-c1c(OC)cccc1OC` [Example 102, 6-butyl-5-(2,6-dimethoxyphenyl)-3-{5-[(1-methyl-1H-pyrazol-4-yl)methyl]-1,3,4-oxadiazol-2-yl}pyridine-2,4-diol], the pEC50 was 6.52 to 7.00.

In the case of `CCCCc1nc(O)c(-c2nnc(Cc3ccc(Cl)cc3F)o2)c(O)c1-c1c(OC)cccc1OC` [Example 103, 6-butyl-3-{5-[(4-chloro-2-fluorophenyl)methyl]-1,3,4-oxadiazol-2-yl}-5-(2,6-dimethoxyphenyl) pyridine-2,4-diol], the pEC50 is 8.00 to 11.00.

For the molecule `CCCCc1nc(O)c(-c2nnc(Cc3nc(-c4ccncc4)no3)o2)c(O)c1-c1c(OC)cccc1OC` [Example 104, 6-butyl-5-(2,6-dimethoxyphenyl)-3-(5-{[3-(pyridin-4-yl)-1,2,4-oxadiazol-5-yl]methyl}-1,3,4-oxadiazol-2-yl)pyridine-2,4-diol], the pEC50 is 8.00 to 11.00.

With `CCCCc1nc(O)c(-c2nnc(CN3CCCC3=O)o2)c(O)c1-c1c(OC)cccc1OC` [Example 105, 1-({5-[6-butyl-5-(2,6-dimethoxyphenyl)-2,4-dihydroxypyridin-3-yl]-1,3,4-oxadiazol-2-yl}methyl) pyrrolidin-2-one], the pEC50 is 8.00 to 11.00.

Take `CCOCc1nc(O)c(-c2nnc(Cc3csc(C)n3)o2)c(O)c1-c1c(OC)cccc1OC` [Example 106, 5-(2,6-dimethoxyphenyl)-6-(ethoxymethyl)-3-{5-[(2-methyl-1,3-thiazol-4-yl)methyl]-1,3,4-oxadiazol-2-yl}pyridine-2,4-diol]: the negative-log EC50 (pEC50) is 8.00 to 11.00.

As to `CCOCc1nc(O)c(-c2nnc(Cc3noc(-c4ccccn4)n3)o2)c(O)c1-c1c(OC)cccc1OC` [Example 107, 5-(2,6-dimethoxyphenyl)-6-(ethoxymethyl)-3-(5-{[5-(pyridin-2-yl)-1,2,4-oxadiazol-3-yl]methyl}-1,3,4-oxadiazol-2-yl)pyridine-2,4-diol], the pEC50 was 8.00 to 11.00.

For `CCCCc1nc(O)c(-c2nnc(Cc3nc(Cc4ccccc4)no3)o2)c(O)c1-c1c(OC)cccc1OC` [Example 108, 3-{5-[(3-benzyl-1,2,4-oxadiazol-5-yl)methyl]-1,3,4-oxadiazol-2-yl}-6-butyl-5-(2,6-dimethoxyphenyl) pyridine-2,4-diol], the pEC50 was 8.00 to 11.00.

For `CCCCc1nc(O)c(-c2nnc(Cc3nc(C4CC4)no3)o2)c(O)c1-c1c(OC)cccc1OC` [Example 109, 6-butyl-3-{5-[(3-cyclopropyl-1,2,4-oxadiazol-5-yl)methyl]-1,3,4-oxadiazol-2-yl}-5-(2,6-dimethoxyphenyl) pyridine-2,4-diol], the pEC50 was 8.00 to 11.00.
